Assays:
cells expressing TM4SF5 = experiment: Activation of glycolytic function (acidification of extracellular solution, Seahorse); format: cell-based
Method: The cells expressing TM4SF5 were treated with vehicle, a negative control compound (4′-methoxy-4-dihydroxychalcone) or TSAHC. Then, the degree of activation of glycolytic function was measured by measuring the acidification of the extracellular solution due to glycolysis while additionally adding glucose at various concentrations using Seahorse equipment.

[1] = tested on: cell lines expressing TM4SF5; experiment: qRT-PCR of M1-type macrophage chemokines/cytokines CCL2, TNF-α, IL-6, IL-1β; format: cell-based; conditions: cell line expressing TM4SF5, LPS and IFN-γ
Method: Cell lines not expressing TM4SF5 (EV) or cell lines expressing thereof (TM4SF5) were treated (+) or not treated with LPS and IFN-γ, treated (+) or not treated with 2-DG (2-Deoxy-D-glucose) as a drug for inhibiting glycolysis at a given concentration, and additionally treated (+) or not treated with TSAHC (−). Then, the mRNA expression levels of CCL2, TNF-α, IL-6, and IL-1β, the chemokines/cytokines indicating the activation of M1-type macrophages, were confirmed by qRT-PCR.

[2] = tested on: M1 and M2 type macrophages differentiated from THP-1 cells; experiment: qRT-PCR of M1 or M2 type macrophage markers in macrophages differentiated from THP-1 cells; format: cell-based, human; conditions: 100 nM for 24 hours; for mRNA levels of M1 type macrophage markers (TNFα, IL1β, IL6) compared to the control group: M1 type macrophages, FIG. 12A
Method: M1 and M2 type macrophages (MΦ) differentiated from THP-1 cells were treated with CCL20 or CXCL10 at a concentration of 100 nM for 24 hours, and then the mRNA expression levels of the markers indicating the activity as M1 or M2 type macrophages were confirmed by qRT-PCR. For M1 type macrophages, the mRNA expression levels of TNFα, IL1β and IL6 were measured, and for M2 type macrophages, the mRNA expression levels of CD206 and FN1 were measured.

[3] = tested on: M0 THP-1 cells expressing TM4SF5; experiment: Glycolytic Proton Efflux Rate (GlycoPER) in M0 THP-1 cells treated with CCL20 or CXCL10; format: cell-based, human; conditions: 300 ng/ml for 24 hours, FIG. 9
Method: THP-1 cells infected with a lentivirus with an empty vector not expressing TM4SF5 or a lentivirus expressing TM4SF5 were treated with 100 nM phorbol-12-myristate-13-acetate (PMA) for 24 hours to differentiate into M0 cells (experimental condition to confirm the not repetitive effects of cytokines/chemokines in the early stage by representing the case before differentiation into M1 type), and then, 300 ng/ml of CCL20 or CXCL10 was treated for 24 hours, and basal and compensatory Glycolytic Proton Efflux Rate (GlycoPER) were measured using a Seahorse XFp device.

Ccl20 = experiment: CCl4-induced liver damage, inflammation and fibrosis with suppression of Ccl20 expression by siRNA; format: in vivo, mouse
Method: 12-week-old normal WT or Tm4sf5^−/− KO mice (5 per group) were intraperitoneally injected with CCl4 (TRC, Canada, C176905, 10 mg/kg/40% olive oil) twice a week for 4 weeks. Ccl20 siRNA [sense 5′-GGAGGAAAUGAUCACAGCUtt-3′ (SEQ. ID. NO: 101), antisense 5′-AGCUGUGAUCAUUUCCUCCtt-3 (SEQ. ID. NO: 102) was purchased from Ambion (Austin Texas, USA) and diluted to an appropriate concentration in PBS. Ccl20 siRNA (1.66 mg/kg) or vehicle was intravenously injected into the mice twice a week. After 4 weeks, liver and blood samples of the animals were obtained.
As shown in the scheme of FIG. 5, 12-week-old normal C57BL/6 mice were intraperitoneally injected with CCl4 (40% in olive oil) at a concentration of 10 mg/kg body weight twice a week for 26 days. At the same time, siRNA against CCL20 (Amibon, Austin Texas, USA, Assay ID 72932, sense 5′-GGAGGAAAUGAUCACAGCUtt-3′, antisense 5′-AGCUGUGAUCAUUUCCUCCtt-3′) dissolved in PBS at a concentration of 1.66 mg/kg was intravenously injected for 26 days before the CCl4 injection. After 26 days of the injection, the mice were sacrificed, and the liver tissue was obtained. Then, the disease state of the liver was investigated by performing immunohistochemistry (IHC), Masson's trichrome staining and qRT-PCR.
Specifically, for H&E staining, the tissue was placed in a 60° C. oven for about 20 minutes to separate the tissue from paraffin, and when the paraffin melted, the tissue was immersed in xylene three times for 5 minutes each. The tissue was put into 100%→90%→80%→70% ethanol→distilled water for 3 minutes each in the order, and then immersed in a hematoxylin solution for 5 minutes to react. After sufficiently washing the tissue with tap water, it was reacted with an eosin solution for about 20 minutes, and washed again with tap water. Then, the tissue was immersed in 70%→80%→90%→100% ethanol→xylene for 3 minutes each in the order for dehydration, followed by mounting on a slide.
Paraffin blocks and liver tissue sections for immunohistochemical staining were obtained from Abion Inc. (Seoul, Korea). As antibodies, F4/80 (Cell Signaling Technology), Ccl20, laminin γ2 (Santa Cruz Biotechnology) were used.
For Masson's trichrome staining, the tissue was first separated from paraffin and then reacted in a preheated bouin's solution for 1 hour. After rinsing the tissue with tap water until the solution was completely drained, it was reacted in a hematoxylin solution for 10 minutes, and then rinsed again with tap water. Then, the tissue was reacted in a biebrich scarlet-acid fuchsin solution for 5 minutes, immersed in distilled water, and reacted in a phosphotungstic/phosphomolybdic acid solution for 15 minutes. The tissue was immersed in an Aniline blue solution for 10 minutes and 1% acetic acid for 1 minute for dehydration. The tissue was immersed in xylene, followed by mounting on a slide.

4′-methoxy-4-dihydroxychalcone [control compound, reference compound]
glycolysis of the cells not expressing TM4SF5 (EV) (cells expressing TM4SF5; EV cell line, FIG. 8B): not changed
glycolytic function of cells expressing TM4SF5 (cells expressing TM4SF5; various concentrations of glucose added, FIG. 8C): not changed

O=CC[C@@H](O)[C@H](O)[C@H](O)CO [2-DG, 2-Deoxy-D-glucose, reference compound]
CCL2 mRNA expression level ([1]; FIG. 11A): decreased
TNF-α mRNA expression level ([1]; FIG. 11B): decreased
IL-6 mRNA expression level ([1]; FIG. 11C): decreased
IL-1β mRNA expression level ([1]; FIG. 11D): decreased

CCL20: chemokine used to treat THP-1-derived macrophages
mRNA levels of M1 type macrophage markers (TNFα, IL1β, IL6) compared to the control group [2]: decreased
mRNA levels of M2 type macrophage markers (CD206, FN1) ([2]; M2 type macrophages, CCL20 alone or together with CXCL10, FIG. 12B): significantly increased
glycolytic function (basal and compensatory GlycoPER) versus vehicle-treated control group [3]: higher

CXCL10: chemokine used to treat THP-1-derived macrophages
mRNA levels of M1 type macrophage markers (TNFα, IL1β, IL6) compared to the control group [2]: decreased
glycolytic function (basal and compensatory GlycoPER) versus vehicle-treated control group [3]: higher

Ccl20 siRNA: siRNA against CCL20 (Ambion), sense 5′-GGAGGAAAUGAUCACAGCUtt-3′, antisense 5′-AGCUGUGAUCAUUUCCUCCtt-3′ (sense GGAGGAAAUGAUCACAGCUTT; antisense AGCUGUGAUCAUUUCCUCCTT; chemistry not given here)
collagen type 1 α1 chain (Col1α1) mRNA level in liver (Ccl20; during CCl4 treatment, FIG. 6A): decreased
Ccl20 mRNA level in liver (Ccl20; during CCl4 treatment, FIG. 6B): decreased
F4/80 mRNA level in liver (Ccl20; during CCl4 treatment, FIG. 6C): decreased
α-smooth muscle actin (Sma) mRNA level in liver (Ccl20; during CCl4 treatment, FIG. 6D): decreased
effect of CCl4 treatment (liver tissue damage, collagen accumulation, Ccl20 and Cxcl10 accumulation, F4/80 macrophage infiltration, laminin γ2 accumulation) (Ccl20; siRNA 1.66 mg/kg intravenously, CCl4 10 mg/kg twice a week, 26 days, FIG. 5): significantly inhibited

Source: patent US12064405B2, “Immunosuppressant comprising TSAHC or a pharmaceutically acceptable salts thereof as an active ingredient” (Seoul National University R&DB Foundation, priority 2020, dated 2024)
